Results taken from patent publication US7642088B2, “Device for susceptibility testing of bacterial pathogens and vaccine strains in poultry” (Lohmann Animal Health GmbH & Co. KG, priority 2004, dated 2010).
≈ marks a conversion by molar mass, not a printed value. Like-named read-outs stand apart in the source and are kept apart here.

How the values were obtained:
[1] = test system: Staphylococcus aureus ATCC 29213; assay: MIC range and interpretive result on gram-positive reference strain; type: cell-based; settings: for Interpretive result: MIC range against breakpoints LB + UB; for MIC range: data validated by MERLIN Diagnostika GmbH
Procedure: (§1) Determining the susceptibility with the microtiter plate 1 depends on the rehydration of antibiotics by the addition of a standardised bacterial suspension. The result is measured after 18-24 hours incubation at 35-37° C. photometrically with MICRONAUT Skan or another suitable photometer and analysed with MICRONAUT Software or visually read and interpreted.
(§2) Test Procedure 1. Gram Preparation: • Gram-positive bacteria appear blue, gram-negative bacteria red. It is recomended that the gram stain is determined according to standard protocol or the recommendations on the manufacturer's kit. 2. Inoculum Production • Prepare a test tube with 5 ml NaCl 0.9% pH 5.5 to 6.5. • Remove several individually located colonies of a pure culture which is 18-24 hours old from the blood agar (without additives). • Homogenise the colonies well in 5 ml NaCl 0.9% until the turbidity corresponds to a McFarland of 0.5. 3. Inoculation in Broth • 3.1 Mueller-Hinton broth or modified ISO-Sensitest broth. • For gram-negative bacteria, 50 μl of the bacterial suspension is pipetted into 11 ml Mueller-Hinton II broth or modified ISO-Sensitest broth and well homogenised. • For gram-positive bacteria, 100 μl of the bacterial suspension is pipetted into 11 ml Mueller-Hinton II broth or modified ISO-Sensitest broth and well homogenised. • 3.2H-Broth • For fastidious bacteria, 200 μl of the bacterial suspension is transferred into 11 ml preheated H-Broth and homogenised. 4. Inoculation (Broth-Microdilution) • Remove microtiter plate from the individual packaging max. 30 minutes before inoculation and dispose of the dessicant. • Label test plate. • Dispense the prepared suspension according to the plate layout into a 2-channel reservoir. • The inoculation of the microtiter plate is carried out manually with a multi-channel pipette, 100 μl per well. 5. Sealing and Incubation • 5.1 Mueller-Hinton II broth or modified ISO-Sensitest broth • After inoculating seal the test plates with an unperforated adhesive film or cover with an unused microtiter plate (max. 5 test plates stacked). • Incubate test plate 18-24 hours at 35-37° C. • 5.2H-Broth • After inoculating the test plates cover with an unused microtiter plate or with a perforated cover film. • Incubate test plate 22 to 24 hours at 35 to 37° C. in the incubator with CO2 gassing. 6. Reading • Remove adhesive film. • Wipe test plate from below. • Reading of test plate with photometer or visually. 7. Analysis • The bacterial growth is determined using a photometric measurement at a wave length of 620 nm or 690 nm—according to the broth used. • The result is analysed, interpreted and checked for its plausibility by means of MICRONAUT Software. The growth control must be overgrown (turbid), otherwise the test must be repeated. With visual readout the results should be recorded on a plate layout plan. The test result can be seen on the screen or on the findings report. 8. Interpretation of the Results
(§3) Breakpoint Interpretation • For antibiotics which are tested in four or fewer consecutive concentrations or in non-consecutive concentrations, interpreting categories are determined, namely susceptible, intermediate and resistant, on the basis of low and upper breakpoint MIC values (See attachment: Tables IIA and IIB, Tables IIIA, IIIB, IIIC and IIID and Table IV). The lower breakpoint (LB) is represented by the MIC value which prevents sufficient and visible bacterial growth, ie the bacterial isolate is susceptible to the antibiotic. […] Using MICRONAUT Software, MIC values can be automatically analysed and interpreted for a given bacterial isolate and antibiotic. […]

[2] = test system: Staphylococcus aureus ATCC 29213; settings: taken from NCCLS, M31-A2, 2002; cited from earlier work
[3] = test system: Enterococcus faecalis ATCC 29212; assay: MIC range and interpretive result on gram-positive reference strain; type: cell-based; settings: for Interpretive result: MIC range against breakpoints LB + UB; for MIC range: data validated by MERLIN Diagnostika GmbH
Procedure: as §1, §2, §3

[4] = test system: Enterococcus faecalis ATCC 29212; settings: taken from NCCLS, M31-A2, 2002; cited from earlier work
[5] = test system: Pseudomonas aeruginosa ATCC 27853; settings: taken from NCCLS, M31-A2, 2002; cited from earlier work
[6] = test system: Escherichia coli ATCC 25922; assay: MIC range and interpretive result on gram-negative reference strain; type: cell-based; settings: for Interpretive result: MIC range against breakpoints LB + UB; for MIC range: data validated by MERLIN Diagnostika GmbH
Procedure: as §1, §2, §3

[7] = test system: Pseudomonas aeruginosa ATCC 27853; assay: as above; type: cell-based; settings: for Interpretive result: MIC range against breakpoints LB + UB; for MIC range: data validated by MERLIN Diagnostika GmbH
Procedure: as §1, §2, §3

[8] = test system: Escherichia coli ATCC 25922; settings: taken from NCCLS, M31-A2, 2002; cited from earlier work
[9] = test system: S.E. Leipzig (field strain); assay: Broth microdilution MIC, resistance marker discrimination, field strain S.E. Leipzig; type: cell-based, Salmonella Enteritidis; settings: chicken, validated at Lohmann Animal Health
Procedure: as §1
(§4) Test Procedure 1. Gram Preparation: • Gram-positive bacteria appear blue, gram-negative bacteria red. It is recomended that the gram stain is determined according to standard protocol or the recommendations on the manufacturer's kit. 2. Inoculum Production • Prepare a test tube with 5 ml NaCl 0.9% pH 5.5 to 6.5. • Remove several individually located colonies of a pure culture which is 18-24 hours old from the blood agar (without additives). • Homogenise the colonies well in 5 ml NaCl 0.9% until the turbidity corresponds to a McFarland of 0.5. 3. […] Reading • Remove adhesive film. • Wipe test plate from below. • Reading of test plate with photometer or visually. […] Analysis • The bacterial growth is determined using a photometric measurement at a wave length of 620 nm or 690 nm—according to the broth used. • The result is analysed, interpreted and checked for its plausibility by means of MICRONAUT Software. […] With visual readout the results should be recorded on a plate layout plan. […]
as §3, with “IV).” for “IV). The lower breakpoint (LB) is represented by the MIC value which prevents sufficient and visible bacterial growth, ie the bacterial isolate is susceptible to the antibiotic.”

[10] = test system: S.E. Sm24/Rif12/Ssq (vaccine strain); assay: Broth microdilution MIC, resistance marker discrimination, vaccine strain S.E. Sm24/Rif12/Ssq; type: cell-based, Salmonella Enteritidis; settings: chicken, validated at Lohmann Animal Health
Procedure: as §1, §4
as §3, with “IV).” for “IV). The lower breakpoint (LB) is represented by the MIC value which prevents sufficient and visible bacterial growth, ie the bacterial isolate is susceptible to the antibiotic.”

[11] = test system: S.Tm. Nal2/Rif9/Rtt (vaccine strain); assay: Broth microdilution MIC, resistance marker discrimination, vaccine strain S.Tm. Nal2/Rif9/Rtt; type: cell-based, Salmonella Typhimurium; settings: chicken, validated at Lohmann Animal Health
Procedure: as §1
as §4, with “2.” for “2. Inoculum Production • Prepare a test tube with 5 ml NaCl 0.9% pH 5.5 to 6.5. • Remove several individually located colonies of a pure culture which is 18-24 hours old from the blood agar (without additives). • Homogenise the colonies well in 5 ml NaCl 0.9% until the turbidity corresponds to a McFarland of 0.5. 3.”
(§5) Breakpoint Interpretation • For antibiotics which are tested in four or fewer consecutive concentrations or in non-consecutive concentrations, interpreting categories are determined, namely susceptible, intermediate and resistant, on the basis of low and upper breakpoint MIC values (See attachment: Tables IIA and IIB, Tables IIIA, IIIB, IIIC and IIID and Table IV). […]

[12] = test system: S.Tm. Moskau 415 (field strain); assay: Broth microdilution MIC, resistance marker discrimination, field strain S.Tm. Moskau 415; type: cell-based, Salmonella Typhimurium; settings: chicken, validated at Lohmann Animal Health
Procedure: as §1
as §4, with “2.” for “2. Inoculum Production • Prepare a test tube with 5 ml NaCl 0.9% pH 5.5 to 6.5. • Remove several individually located colonies of a pure culture which is 18-24 hours old from the blood agar (without additives). • Homogenise the colonies well in 5 ml NaCl 0.9% until the turbidity corresponds to a McFarland of 0.5. 3.”
as §5

Row | Compound | Interpretive result [1] | MIC range [2] | Interpretive result [3] | MIC range [4] | Interpretive result [6] | Interpretive result [7] | MIC range [8] | also measured
1 | C=C[C@]1(C)C[C@@H](OC(=O)CSCCN(CC)CC)[C@]2(C)[C@H](C)CC[C@]3(CCC(=O)[C@H]32)[C@@H](C)[C@@H]1O [Tiamulin] | S | 0.5 to 2.0 µg/mL | – | – | – | – | – | –
2 | Gentamicin | S | 0.12 to 1 µg/mL | S/I/R | 4 to 16 µg/mL | S | S | 0.25 to 1 µg/mL | MIC range [5]: 0.5 to 2 µg/mL
3 | CC1(C)S[C@@H]2[C@H](NC(=O)[C@H](N)c3ccccc3)C(=O)N2[C@H]1C(=O)O [Ampicillin] | – | – | S | 0.5 to 2 µg/mL | S | – | 2 to 8 µg/mL | –
4 | CC1(C)S[C@@H]2[C@H](NC(=O)Cc3ccccc3)C(=O)N2[C@H]1C(=O)O [Penicillin G] | R | 0.25 to 2 µg/mL | S | 1 to 4 µg/mL | – | – | – | –
5 | CO[C@H]1/C=C/O[C@@]2(C)Oc3c(C)c(O)c4c(O)c(c(/C=N/N5CCN(C)CC5)c(O)c4c3C2=O)NC(=O)/C(C)=C\C=C\[C@H](C)[C@H](O)[C@@H](C)[C@@H](O)[C@@H](C)[C@H](OC(C)=O)[C@@H]1C [Rifampicin] | – | – | – | – | – | – | – | MIC range [9]: <50 µg/mL; MIC range [10]: >50 µg/mL; MIC range [11]: >50 µg/mL; MIC range [12]: <50 µg/mL
6 | Neomycin | S | – | R | – | S | – | – | MIC range [1]: 0.5 to 2 µg/mL; MIC range [3]: 16 to 64 µg/mL; MIC range [6]: 0.5 to 2 µg/mL
7 | [H]/N=C(/N)N[C@H]1[C@H](O)[C@@H](O)[C@H](O[C@@H]2O[C@@H](C)[C@](O)(C=O)[C@H]2O[C@@H]2O[C@@H](CO)[C@H](O)[C@@H](O)[C@@H]2NC)[C@@H](N/C(N)=N\[H])[C@@H]1O [Streptomycin] | – | – | – | – | – | – | – | MIC range [9]: <200 µg/mL; MIC range [10]: >200 µg/mL
8 | CC[C@H]1OC(=O)[C@H](C)[C@@H](O[C@H]2C[C@@](C)(OC)[C@@H](O)[C@H](C)O2)[C@H](C)[C@@H](O[C@@H]2O[C@H](C)C[C@H](N(C)C)[C@H]2O)[C@](C)(O)C[C@@H](C)C(=O)[C@H](C)[C@@H](O)[C@]1(C)O [Erythromycin] | S/I | 0.12 to 1 µg/mL | I | 1 to 4 µg/mL | – | – | – | MIC range [9]: ≧20 μg/ml; MIC range [10]: ≦5 μg/ml; MIC range [11]: ≦5 μg/ml; MIC range [12]: ≧20 μg/ml
9 | CO/N=C(\C(=O)N[C@@H]1C(=O)N2C(C(=O)O)=C(CSC(=O)c3ccco3)CS[C@H]12)c1csc(N)n1 [Ceftiofur] | S | 0.25 to 1 µg/mL | – | – | S | R | 0.25 to 1 µg/mL | MIC range [5]: 16 to 64 µg/mL
10 | CCC[C@@H]1C[C@@H](C(=O)N[C@@H]([C@H]2O[C@H](SC)[C@H](O)[C@@H](O)[C@H]2O)[C@@H](C)O)N(C)C1 [Lincomycin] | S/I | – | R | – | – | R | – | MIC range [1]: 0.5 to 2 µg/mL; MIC range [3]: 8 to 32 µg/mL; MIC range [7]: 32 µg/mL (≈ 78.7 µM)
11 | Colistin | R | – | – | – | S | S/I | – | MIC range [1]: 64 µg/mL; MIC range [6]: ≦0.5 μg/ml; MIC range [7]: 0.5 to 2 µg/mL
12 | CN(C)[C@@H]1C(O)=C(C(N)=O)C(=O)[C@@]2(O)C(O)=C3C(=O)c4c(O)cccc4[C@@](C)(O)[C@H]3C[C@@H]12 [Tetracycline] | S | – | I/R | – | S | R | – | –
13 | CCN1CCN(c2cc3c(cc2F)c(=O)c(C(=O)O)cn3C2CC2)CC1 [Enrofloxacin] | S | 0.03 to 0.12 µg/mL | S/I | 0.12 to 1 µg/mL | S | I/R | 0.008 to 0.03 µg/mL | MIC range [5]: 1 to 4 µg/mL
14 | Cc1onc(-c2ccccc2)c1C(=O)N[C@@H]1C(=O)N2[C@@H]1SC(C)(C)[C@@H]2C(=O)O [Oxacillin] | S | 0.12 to 0.5 µg/mL | R | 8 to 32 µg/mL | – | – | – | –
15 | CN[C@@H]1[C@H](O)[C@H](NC)[C@H]2O[C@@]3(O)C(=O)C[C@@H](C)O[C@H]3O[C@@H]2[C@H]1O [Spectinomycin] | R | 64 to 256 µg/mL | R | 64 to 256 µg/mL | S/R | – | 8 to 64 µg/mL | –
